“And” between values parts separate entries of the source, which are not always exact repeats. Equal entries are not always repeated.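 Exposure lasted 48 hours, with cells grown in 96-well plates and compounds tested at five concentrations. At the GI50, growth is halved. TGI is the concentration that stops growth completely.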
Legend:
Experiment in all cases: NCI-60 cell line screen, 48 h
[1] = system: DU-145 prostate
[2] = system: HS 578T breast
[3] = system: MDA-MB-435
[4] = system: NCI/ADR-RES ovarian
[5] = system: PC-3 prostate
[6] = system: T-47D breast

Structure (SMILES) | TGI [1] | GI50 [2] | TGI [2] [µM] | GI50 [3] | TGI [3] | TGI [4] [µM] | GI50 [5] | TGI [5] | GI50 [6] | TGI [6] | GI50 [1] | GI50 [4]
COc1ccc(OC)c(/C=C/C(=O)c2ccc3cc(OC)ccc3c2)c1 | > 20.7 µM | > 33.3 µM | > 50 | 0.641 µM | 1.88 µM | > 13.8 | 6.71 µM | > 50 µM | 0.811 µM | 3.33 µM |  | 
O=C(O)CSc1nnc2c3ccccc3c3ccccc3c2n1 | > 100 µM |  | > 100 |  | > 100 µM | > 100 |  | > 100 µM |  |  |  | 
CN(C)c1ccc(/C=N/NC(=O)c2cnc3ccccc3c2)cc1 | > 100 µM |  | 63.5 |  | 34.5 µM | > 100 |  | > 100 µM |  |  |  | 
NCCNc1ncnc2ccc(Cl)cc12 | > 100 µM |  | > 100 |  | > 100 µM | > 100 |  | > 100 µM |  | > 100 µM |  | 
CN1CCN(Cc2ccc(NC(=O)c3[nH]ncc3Nc3cc(OC4CCCC4)ncn3)cc2)CC1 | 12.9 µM | 2.2 µM | 30 | 1.84 µM | 8.32 µM | 15 | 2.26 µM | 11.1 µM | 5.06 µM | 21.5 µM | 2.35 µM | 3.68 µM
COC(=O)[C@]1(C)CC[C@]2(C)CC[C@]3(C)C(=CC(=O)[C@@H]4[C@@]5(C)CCC(=O)NC(C)(C)[C@@H]5CC[C@]43C)[C@@H]2C1 | 89.6 µM | 32.7 µM | > 100 | 26.6 µM | > 100 µM | 53.6 | 4.69 µM | 21.3 µM | 9.97 µM | > 100 µM | 20.9 µM | 20.2 µM
C=CC(=O)Nc1cccc(Nc2nc(Nc3ccc(N4CCN(C(C)=O)CC4)cc3OC)ncc2C(F)(F)F)c1 | > 10 µM and 17.3 µM | 3.73 µM and 3.36 µM | > 95.9 | 4.11 µM and 2.95 µM | > 10 µM and 19.2 µM | > 74.4 | 9.75 µM and 4.73 µM | > 10 µM and 27.7 µM | 1.88 µM and 3.92 µM | > 10 µM and 49.3 µM | 4.23 µM and 2.39 µM | 7.5 µM and 9.09 µM
COc1cc[nH]c1/C=C1\C(=O)Nc2ccc([N+](=O)[O-])c(N3CC[C@@H](O)C3)c21 | 2.83 µM | 0.353 µM | 6.33 | 0.271 µM | 0.907 µM | 5.83 | 0.235 µM | 2.15 µM | 0.541 µM | 3.8 µM | 0.177 µM | 0.53 µM
CSc1nc(-c2cccc(NC(=O)CCl)c2)c(C#N)c(=O)n1C | 3.44 µM | 2.33 µM | 7.45 | 2.06 µM | 5.98 µM |  | 2.4 µM | 8.12 µM | 1.71 µM | 4.19 µM | 1.77 µM | 
Nc1nc(N)c(-c2ccc(Cl)cc2)c(/C=C/c2ccc([N+](=O)[O-])cc2)n1 | > 100 µM | 9.97 µM | > 100 | 4.44 µM | > 100 µM | > 100 | 3.9 µM | > 100 µM | 6.19 µM | > 100 µM | 6.66 µM | 7.99 µM
O=[N+]([O-])c1ccc2nc(=S)[nH]n2c1 | > 100 µM |  | > 100 |  | > 100 µM | > 100 |  |  |  | > 100 µM |  | 
